Assay results from PMC10415494, “Ga(III) pyridinecarboxylate complexes: potential analogues of the second generation of therapeutic Ga(III) complexes?” (Journal of Biological Inorganic Chemistry, 2023).

Assays:
[1] = tested on: Pseudomonas aeruginosa (P. aeruginosa) CCM 1959; test: Antimicrobial activity, macrodilution method (growth by A590); assay type: cell-based
Protocol: (§1) The antimicrobial activities of gallium(III) complexes GaPic, GaDpic, GaChel, GaCldpic, free ligands (HPic, H2Dpic, H2Chel, H2Cldpic) and positive controls (cefoxitin (C), ampicillin (A) and piperacillin (P)) were evaluated by macrodilution method using G^+ bacteria (Firmicutes) Staphylococcus aureus (S. aureus) CCM 3953 (Czech Collection of Microorganisms), G^− bacteria (γ-proteobacteria) Escherichia coli (E. coli) CCM 3988, Pseudomonas aeruginosa (P. aeruginosa) CCM 1959 (Czech Collection of Microorganisms) and the yeast Candida parapsilosis (C. parapsilosis) ATCC 22019 (American type culture collection). Cultures of bacteria (in Mueller–Hinton broth, MHB) and yeasts (in Sabouraud’s growth medium, SB) were incubated under shaking (250 rpm) at 37 °C. The growth of bacteria and yeasts was evaluated by measuring the absorbance of the growing cultures (A590) until the cultures reached the stationary growth phase. The effects of gallium(III) complexes on the growth of filamentous fungi Rhizopus oryzae (R. oryzae) CCM F-8284, Alternaria alternata (A. alternata) CCM F-128 and Microsporum gypseum (M. gypseum) CCM F-8342 (Czech Collection of Microorganisms) were observed by macrodilution method on solidified potato-dextrose growth medium (PDA). During culturing, the diameters of growing fungal colonies were measured at regular intervals. Briefly, the antimicrobial activity (bacteria and yeasts) gallium(III) complexes/ ligands were added to the microbial culture at the beginning of the cultivation-to the lag phase. Pure gallium(III) complexes/ligands were dissolved in DMSO. The final concentration of DMSO never exceeded 1.0 vol. % neither in control nor treated samples. Concentration of gallium(III) complexes used in experimental work for evaluation of antimicrobial activity was used in the range of 0.05–2 mM, for the free ligands in the range of 0.5–2.0 mM in all experiments. […] The IC50 values were evaluated from toxicity curves. All the obtained results of antimicrobial activity were compared to the activity of Ga(NO3)3.

[2] = tested on: Escherichia coli (E. coli) CCM 3988; test: as above; assay type: cell-based
Protocol: as §1

[3] = tested on: Staphylococcus aureus (S. aureus) CCM 3953; test: as above; assay type: cell-based; conditions: Bacteria; MHB, 37 °C; DMSO max 1.0 vol. %; read-out: IC50 S. aureus
Protocol: as §1

[4] = tested on: human dermal fibroblasts (HDF); test: in vitro
Protocol: (§2) Cell culture the cell lines A2058 (human metastatic melanoma), BLM (human metastatic melanoma), HCT116 (human colorectal carcinoma), HeLa (human cervical adenocarcinoma), Jurkat (human leukaemic T cell lymphoma). […] Cells were maintained in standard conditions with an atmosphere containing 5% CO2 at 37 °C.
(§3) The antiproliferative activity of Ga(III) complexes GaPic, GaDpic, GaChel, GaCldpic, free ligands (HPic, H2Dpic, H2Chel, H2Cldpic) and cisplatin (cisPt) were evaluated by colorimetric microculture MTS (3-(4,5-dimethylthiazol-2-yl)-5-(3-carboxymethoxyphenyl)-2-(4-sulfophenyl)-2H tetrazolium) assay (Promega, Madison, WI, USA). Cancer and non-cancer cells were seeded at density 5 × 10^3 cells/well in 96-well polystyrene microplates. Twenty-four hours after cell seeding, different concentrations (1.0—100.0 µM) of the compounds were tested. After 72 h of incubation, 10 µL of MTS was added to each well. After an additional 2 h, cell proliferation was evaluated by measuring of absorbance at wavelength 490 nm using the automated Cytation™ 3 Cell Imaging Multi-Mode Reader (Biotek, Winooski, VT, USA). The absorbance of control wells was taken as 100%, and the results were expressed as a percent of untreated control. IC50 values were calculated from MTS analyses.

[5] = Solubility (qualitative); assay type: physicochemical
[6] = Complex stability in biological testing medium by time-dependent 1H NMR; assay type: physicochemical; conditions: 300 K, over 96 h
Protocol: Nuclear magnetic resonance (NMR) data were collected on a Varian VNMRS 600 spectrometer operating at 599.87 MHz for ^1H. The concentration of all samples was approximately 3 mg/0.6 mL of 1% DMSO-d6/D2O. For comparison, the spectra of pure acids were also measured, while the pH of the solution of acids was adjusted to the same value as the solution of the complexes. The chemical shifts were referenced to the TSP (3-(trimethylsilyl)propionic-2,2,3,3-d4 acid sodium salt) peak (^1H NMR 0.00 ppm). The NMR data were recorded at 300 K, with chemical shifts δ reported in parts per million and coupling constants J in Hertz. All data were analysed using MestReNova 12.0.0 (2017) software. The stability in 1% DMSO-d6/D2O was determined for all samples. […]

[7] = tested on: PaTu 8902 (human pancreatic adenocarcinoma); test: MTS antiproliferative assay
Protocol: as §2, §3

[8] = tested on: HeLa (human cervical adenocarcinoma); test: MTS antiproliferative assay
Protocol: as §2, §3

[9] = tested on: HCT116 (human colorectal carcinoma); test: MTS antiproliferative assay
Protocol: as §2, §3

[10] = tested on: MDA-MB-231 (human mammary gland adenocarcinoma); test: MTS antiproliferative assay
Protocol: as §2, §3

[11] = tested on: Jurkat (human leukaemic T cell lymphoma); test: MTS antiproliferative assay
Protocol: as §2, §3

[12] = tested on: A2058 (human metastatic melanoma); test: MTS antiproliferative assay
Protocol: as §2, §3

[13] = tested on: Candida parapsilosis (C. parapsilosis) ATCC 22019; test: Antimicrobial activity, macrodilution method (yeast, growth by A590); assay type: cell-based; conditions: Yeast; Sabouraud's growth medium, 37 °C; read-out: IC50 C. parapsilosis
Protocol: as §1

[14] = tested on: Microsporum gypseum (M. gypseum) CCM F-8342; test: Growth of filamentous fungi, macrodilution method on solidified PDA (colony diameter); assay type: cell-based; conditions: Filamentous fungi; solidified potato-dextrose growth medium; read-out: IC50 M. gypseum
Protocol: as §1

[15] = tested on: Alternaria alternata (A. alternata) CCM F-128; test: as above; assay type: cell-based; conditions: Filamentous fungi; solidified potato-dextrose growth medium; read-out: IC50 A. alternata
Protocol: as §1

[16] = tested on: Rhizopus oryzae (R. oryzae) CCM F-8284; test: as above; assay type: cell-based; conditions: solidified potato-dextrose growth medium; read-out: IC50 R. oryzae
Protocol: as §1

[17] = cited from earlier work
[18] = parameters: method as in doi:10.1002/hlca.19600430611; conditions: cited from earlier work

Q: Which results are given for `O.O.O=C([O-])c1cc(Cl)cc(C(=O)[O-])n1.O=C([O-])c1cc(Cl)cc(C(=O)[O-])n1.[Ga+3].[Ga+3].[OH-].[OH-]` [GaCldpic, [Ga(Cldpic)(H2O)(OH)]2]?
A: IC50 ([1]; Bacteria, MHB, 37 °C, DMSO max 1.0 vol. %, read-out: IC50 P. aeruginosa): 50 µM; MIC100 (MIC) P. aeruginosa ([1]; growth fully inhibited (100%)): 500 µM; IC50 ([2]; Bacteria, MHB, 37 °C, DMSO max 1.0 vol. %, read-out: IC50 E. coli): > 2000 µM; partial inhibition of E. coli growth ([2]; concentration not given): 30%; IC50 [3]: > 2000 µM; IC50 [4]: 447 ± 27.6 µM; solubility in ethanol [5]: slightly soluble; stability in 1% DMSO-d6/D2O solution [6]: stable; IC50 [7]: 437 ± 22.6 µM; IC50 [8]: 447 ± 134 µM; IC50 [9]: 404 ± 47.7 µM; IC50 [10]: 271 ± 68.3 µM; IC50 [11]: 405 ± 87 µM; IC50 [12]: 294 ± 57.5 µM; IC50 [13]: > 2000 µM; IC50 [14]: > 2000 µM; IC50 [15]: > 2000 µM; IC50 [16]: > 2000 µM

Q: For `O=C(O)c1cccnc1` [nicotinic, nicotinic acid], which “dissociation constant pK2” value [17] is on record?
A: 4.66

Q: For Fe(Dpic)2, which “stability constant logβ021” value [18] is on record?
A: 17.13
